For test [1], the target named is T1, Adenosine receptor A1 (Bos taurus, UniProt P28190).
T1 sequence (P28190 whole entry): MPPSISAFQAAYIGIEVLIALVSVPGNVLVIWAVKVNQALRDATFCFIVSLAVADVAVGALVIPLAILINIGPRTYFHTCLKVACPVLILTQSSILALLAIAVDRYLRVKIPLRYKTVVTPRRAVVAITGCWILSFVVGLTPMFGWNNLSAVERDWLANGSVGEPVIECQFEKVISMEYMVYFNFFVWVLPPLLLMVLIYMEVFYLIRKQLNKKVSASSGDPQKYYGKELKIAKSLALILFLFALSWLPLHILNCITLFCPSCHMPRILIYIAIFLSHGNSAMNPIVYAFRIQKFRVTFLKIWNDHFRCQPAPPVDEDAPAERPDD
Description: Displacement of specific [3H]CHA binding at adenosine A1 receptor in bovine brain membranes. The test is classed as cell membranes.

Test [2] deals with T2, Adenosine receptor A3 (Homo sapiens, UniProt P0DMS8).
T2 sequence (P0DMS8 whole entry): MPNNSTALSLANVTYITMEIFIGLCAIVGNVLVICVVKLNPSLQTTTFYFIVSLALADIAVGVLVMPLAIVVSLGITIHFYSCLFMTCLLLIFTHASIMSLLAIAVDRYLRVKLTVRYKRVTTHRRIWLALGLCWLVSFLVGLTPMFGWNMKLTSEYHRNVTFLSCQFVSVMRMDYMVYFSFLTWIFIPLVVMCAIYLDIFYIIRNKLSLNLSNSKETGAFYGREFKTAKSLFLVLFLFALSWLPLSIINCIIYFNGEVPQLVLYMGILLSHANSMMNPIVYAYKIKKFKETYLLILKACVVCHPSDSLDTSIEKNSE
The experiment in a line: Displacement of specific [125I]AB-MECA binding at human adenosine A3 receptor expressed in CHO cells. It is filed as cell-based.

For test [3], the system named is Adenosine receptor A2a (Bos taurus). The experiment in a line: Inhibition of specific [3H]-CGS- 21680 binding at Adenosine A2A receptor in bovine striatal membranes at 20 uM. The note with it: Striatum, Membrane.
Test [4] concerns the target Adenosine receptor A2a (Bos taurus). The experiment in a line: Displacement of specific [3H]-CGS- 21680 binding at Adenosine A2A receptor in bovine striatal membranes.
Test [5] concerns the target T3, Adenosine receptor A3 (Homo sapiens) (UniProt P0DMS8).
T3 sequence (whole entry): T2 sequence (P0DMS8 whole entry)
The experiment in a line: Inhibition of [125I]AB-MECA binding to human Adenosine A3 receptor expressed in CHO cells at 1 uM. It is filed as cell-based.

The target in test [6] is T4, Adenosine receptor A1 (Bos taurus) (UniProt P28190).
T4 sequence (whole entry): T1 sequence (P28190 whole entry)
Description: Inhibition of [3H]CHA binding at Adenosine A1 receptor in bovine brain membranes at 20 uM. The test is classed as cell membranes.

The term Ki denotes the dissociation constant of the complex between target and ligand, obtained from inhibition or displacement. A higher Ki goes with lower affinity. For orientation: inhibition means the change of the read-out against control, counted positive when it falls. The low end stands for a response near the control, the high end for a response far below the control. As to `Cc1cccc(-n2cc3c(n2)c(=O)[nH]c2ccccc23)c1`, the Ki in test [1] was determined as 830 nM; in test [2], 5 nM. In test [3], this compound displayed an inhibition of 17%.
For `O=C(Cc1ccccc1)Nc1nc2ccccc2c2cn(-c3ccccc3)nc12`, the Ki in test [1] is 107 nM; in test [2], 9.9 nM.
Take `Cc1ccc(-n2cc3c(n2)c(=O)[nH]c2ccccc23)cc1`: the Ki is 3900 nM in test [1] and 3.2 nM in test [2].
Regarding `Cc1ccccc1-n1cc2c(n1)c(N)nc1ccccc12`, the Ki stood at 520 nM in test [1], 3600 nM in test [2] and 1600 nM in test [4].
Turning to `Cc1ccccc1-n1cc2c(n1)c(NC1CCCC1)nc1ccccc12`, the Ki is 148 nM in test [1] and 152 nM in test [2].
With `Cc1cccc(-n2cc3c(n2)c(NC2CCCC2)nc2ccccc23)c1`, the values for the Ki in test [1] and in test [2] were 40.7 nM and 22.3 nM, respectively.
For `c1ccc(-n2cc3c(n2)c(NC2CCCCC2)nc2ccccc23)cc1`, in that order: 8.6 nM and 707 nM.
Turning to `COc1ccc(-n2cc3c(n2)c(=O)[nH]c2ccccc23)cc1`, the Ki in test [1] came out at 1080 nM; in test [2], 3.2 nM. The compound also had an inhibition in test [3] of 18%.
The corresponding values for `Clc1ccc(-n2cc3c(n2)c(NC2CCCCC2)nc2ccccc23)cc1` are 478 nM, 56.5 nM and 8%.
Regarding `Cc1ccccc1-n1cc2c(n1)c(=O)[nH]c1ccccc12`, the Ki in test [1] worked out at 3200 nM; in test [2], 79.2 nM.
The corresponding values for `c1ccc(CCNc2nc3ccccc3c3cn(-c4ccccc4)nc23)cc1` are 60.1 nM and 32.9 nM.
For `Nc1nc2ccccc2c2cn(-c3cccc(F)c3)nc12`, in that order: 110 nM and 788 nM.
`O=c1[nH]c2ccccc2c2cn(-c3ccc(Cl)cc3)nc12`: the figures for the Ki in test [1] and in test [2] were 464 nM and 2.9 nM, respectively.
Regarding `O=C(NCc1ccccc1)Nc1nc2ccccc2c2cn(-c3ccccc3)nc12`, the Ki is 186 nM in test [1] and 8.3 nM in test [2]. In addition, the inhibition in test [3] came out at 5%.
Take `Clc1ccc2nc(NC3CCCCC3)c3nn(-c4ccccc4)cc3c2c1`: the Ki in test [1] turned out to be 27.1 nM; in test [2], 2130 nM; in test [4] it was 4140 nM.
For `O=c1[nH]c2ccccc2c2cn(-c3ccccc3)nc12`, the Ki in test [2] is 30.8 nM.
Turning to `O=c1[nH]c2ccc(Cl)cc2c2cn(-c3ccccc3)nc12`, the inhibitory constant (Ki) came out at 284 nM in test [1] and 44.1 nM in test [2].
For `Oc1nc2ccc(Cl)cc2c2cn(-c3ccccc3)nc12`, in test [3], the inhibition amounted to 52%.
For `Cc1ccc(-n2cc3c(n2)c(N)nc2ccccc23)cc1`, the Ki in test [1] was determined as 215 nM; in test [2] it was 188 nM.
In the case of `Oc1nc2ccccc2c2cn(-c3cccc(F)c3)nc12`, the Ki in test [1] was 583 nM; in test [2], 45.3 nM. Moreover, the inhibition in test [3] stood at 0%.
For `Nc1nc2ccccc2c2cn(-c3ccc(Cl)cc3)nc12`, the Ki in test [2] came out at 150 nM.
With `Cc1ccccc1-n1cc2c(n1)c(O)nc1ccccc12`, the inhibition in test [3] is 0%.
In turn, `Oc1nc2ccccc2c2cn(-c3ccc(Cl)cc3)nc12` displayed an inhibition in test [3] of 35%.
Take `CCCn1c(=O)c2nn(-c3ccccc3)cc2c2ccccc21`: the Ki in test [1] came out at 950 nM; in test [2], 68.4 nM.
Take `Nc1nc2ccc(Cl)cc2c2cn(-c3ccccc3)nc12`: the Ki in test [1] is 86.1 nM; in test [2], 309 nM; in test [4] it was 5750 nM.
Turning to `O=C(Nc1ccccc1)Nc1nc2ccccc2c2cn(-c3ccccc3)nc12`, the Ki in test [1] came to 1500 nM; in test [2] it was 108 nM. Moreover, the inhibition in test [3] was found to be 32%.
As to `Nc1nc2ccccc2c2cn(-c3ccccc3)nc12`, the Ki in test [1] was determined as 69.2 nM; in test [2], 551 nM.
Turning to `Cc1cccc(-n2cc3c(n2)c(NC2CCCCC2)nc2ccccc23)c1`, the values for the Ki in test [1], in test [2] and in test [4] were 22.2 nM, 44.1 nM and 11400 nM, respectively.
In the case of `Fc1cccc(-n2cc3c(n2)c(NC2CCCCC2)nc2ccccc23)c1`, the Ki stood at 54.7 nM in test [1] and 155 nM in test [2].
For `Cc1ccc(-n2cc3c(n2)c(NC2CCCCC2)nc2ccccc23)cc1`, the Ki is 71.9 nM in test [1] and 115 nM in test [2].
For the compound `Fc1cccc(-n2cc3c(n2)c(NC2CCCC2)nc2ccccc23)c1`, the Ki in test [1] came out at 9.3 nM; in test [4], 2210 nM. Moreover, the inhibition in test [5] was found to be 34%.
For the compound `CC(=O)Nc1nc2ccccc2c2cn(-c3ccccc3)nc12`, the values for the Ki in test [1] and in test [2] were 75.9 nM and 48.2 nM, respectively.
For the compound `Cc1cccc(-n2cc3c(n2)c(N)nc2ccccc23)c1`, the Ki in test [1] turned out to be 129 nM; in test [2], 99.3 nM; in test [4] it was 3750 nM.
For the compound `O=C(Nc1nc2ccccc2c2cn(-c3ccccc3)nc12)c1ccccc1`, the Ki in test [2] was 2.1 nM. Also, the inhibition in test [6] was determined as 42%.
As for `COc1ccc(-n2cc3c(n2)c(N)nc2ccccc23)cc1`, the Ki in test [1] is 238 nM; in test [2], 90.2 nM.
Take `c1ccc(CNc2nc3ccccc3c3cn(-c4ccccc4)nc23)cc1`: the Ki in test [1] is 132 nM; in test [2] it was 35.8 nM; in test [4], 5400 nM.
With `Cn1c(=O)c2nn(-c3ccccc3)cc2c2ccccc21`, the Ki is 1230 nM in test [1] and 118 nM in test [2].
Consider `c1ccc(-n2cc3c(n2)c(NC2CCCC2)nc2ccccc23)cc1`, for which the Ki is 3.2 nM in test [1], 60.5 nM in test [2] and 849 nM in test [4].

For the origin of these results see ChEMBL document CHEMBL1133616, “Synthesis and structure-activity relationships of a new set of 2-arylpyrazolo[3,4-c]quinoline derivatives as adenosine receptor antagonists” (J Med Chem, 2000).
